# Source: patent US12180252B2, “Peptide derived from PEP27 peptide and uses thereof” (priority 2021, dated 2024)
# “And” between values parts separate entries of the source, which are not always exact repeats. Equal entries are not always repeated. Where two headings read alike, the source gives them in different places. Where a SMILES comes first, the peptide text is derived from it.
# Legend:
# B. subtilis KCTC1998 = format: cell-based, Bacillus subtilis
# Experimental: (§1) In order to evaluate the antimicrobial activity of the peptides prepared by the method of above 1, a minimal inhibitory concentration (MIC) value as the minimum concentration of a peptide, in which cells are not divided, was measured.
# (§2) Specifically, the strains shown in Table 3 below were purchased, cultured in a medium having a constitutional composition suitable for each strain to a mid-log phase, and then diluted to a concentration of 2×10^4 cells/100 μl to prepare the product on a micro-titration plate (Nunc, USA). Then, PEP27, PEP27-1, PEP27-2 or PEP27-5 peptide synthesized in the above 1 was added to each well by serial dilution ½ times, followed by incubation at 37° C. for 18 hours.
# [1] = tested on: Sa. typhimurium CCARM8007; format: cell-based, Salmonella typhimurium; details: Sa. typhimurium CCARM8007, antibiotics-tolerant; 37° C., 18 hours
# Experimental: as §1, §2
# [2] = tested on: Sa. typhimurium CCARM8009; format: cell-based, Salmonella typhimurium; details: Sa. typhimurium CCARM8009, antibiotics-tolerant; 37° C., 18 hours
# Experimental: as §1, §2
# Sa. typhimurium KCTC1926 = format: cell-based, Salmonella typhimurium
# Experimental: as §1, §2
# [3] = tested on: red blood cells of a rat (Balb/c); details: 37° C., 1 hour
# Experimental: In order to compare the cytotoxicity of the peptides prepared by the method of above 1, erythrocyte hemolytic activity of each of the synthesized peptides was measured.
# Specifically, red blood cells of a rat (Balb/c, 6 weeks old, female) were diluted with PBS (pH 7.0) to a concentration of 8%, and PEP27, PEP27-1, PEP27-2 and PEP27-5 peptides were used for treatment of the cells at concentrations of 3.13, 6.25, 12.5, 25.01 50.0 and 100.0 μM/well, respectively, followed by reaction at 37° C. for 1 hour. Then, an amount of hemoglobin contained in the supernatant obtained by centrifugation at 1,000×g was determined by measuring the absorbance at a wavelength of 414 nm. As a control which is a standard for the degree of cell destruction, the absorbance of the obtained supernatant was measured after treatment using 1% Triton X-100 (Sigma, USA) and reaction at 37° C. for 1 hour. With reference to 100% erythrocytes hemolysis activity, hemolysis of each peptide was calculated from the measured absorbance using Equation 1 below. Erythrocyte destruction ability (%)=(Absorbance A−Absorbance B)/(Absorbance C−Absorbance B)×100 [Equation 1]
# (wherein, absorbance A represents the absorbance of a reaction solution treated with each peptide measured at a wavelength of 414 nm; absorbance B represents the absorbance of a reaction solution treated with PBS measured at a wavelength of 414 nm; and absorbance C represents the absorbance of a reaction solution treated with 1% Triton X-100 measured at a wavelength of 414 nm).
# E. coli = assay: Flow cytometry, propidium iodide staining; format: cell-based, Escherichia coli; details: E. coli, flow cytometry
# Experimental: In order to confirm whether the peptide prepared by the method of above 1 acts on the bacterial membrane, PEP27-2 peptide having better antimicrobial activity than the parental peptide was analyzed through flow cytometry.
# Thereafter, the supernatant was removed using a centrifuge (10,000 rpm) and stained with propidium iodide (PI) at a concentration of 10 μg/ml at 4° C. for 30 minutes. Then, the unbound propidium iodide (PI) was removed using the centrifuge, and 1 ml of physiological saline (PBS) was added to remove agglomeration of the cells. Thereafter, effects of the peptide on the bacterial membrane were determined using a Bechman flow cytometer.
# [4] = tested on: E. coli and Staphylococcus aureus cells; assay: Scanning electron microscope analysis of bacterial membrane; format: cell-based, Escherichia coli; details: at MIC, 37° C., 1 hour
# Experimental: In order to confirm whether the synthetic peptides of the present invention prepared by the method of above 1 would damage the bacterial cell membrane, it was investigated through a scanning electron microscope.
# As a control, a strain not treated with peptide was used. After incubation, the cells were recovered, treated with 2.5% glutaraldehyde at 4° C. for 18 hours, and washed twice with PBS buffer solution. The fixed cells were dehydrated for 10 minutes using 100% ethanol and diluted ethanol (50%, 70%, 90% and 100%) in sequential order, and then the samples were dried and coated with platinum, followed by observation through a low vacuum scanning electron microscope.
# P. aeruginosa ATCC15692 = format: cell-based, Pseudomonas aeruginosa
# P. aeruginosa 4007 = format: cell-based, Pseudomonas aeruginosa
# P. aeruginosa ATCC27853 = assay: microbe, parasite or virus in culture; details: ATCC27853, 18 h
# In short: (§3)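 Peptide growth inhibition measured by twofold dilution against mid-log bacteria (2×10^4 cells/100 μl), 37° C, 18 hours; endpoint was absence of cell division. Meropenem, ceftazidime, ceftriaxone and vancomycin were run in parallel.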
# S. aureus ATCC25923 = assay: microbe, parasite or virus in culture; details: ATCC25923, 18 h
# In short: as §3
# S. aureus ATCC29213 = assay: microbe, parasite or virus in culture; details: ATCC29213, 18 h
# In short: as §3
# S. aureus MW2 = assay: microbe, parasite or virus in culture; details: S. aureus MW2, antibiotics-tolerant; 37° C., 18 hours
# In short: as §3
# S. aureus USA300 = assay: microbe, parasite or virus in culture; details: S. aureus USA300, antibiotics-tolerant; 37° C., 18 hours
# In short: as §3
# S. aureus ATCC 25923 = assay: Time-kill kinetics; format: cell-based, Staphylococcus aureus; details: at MIC, after 20 min of treatment
# Experimental: Time-killing kinetics were analyzed for E. coli ATCC 25922 and S. aureus ATCC 25923 in the presence of PEP27-2 at their respective MICs. The bacterial cells were cultured overnight until they reached the exponential growth phase; they were then incubated at 37° C. for an additional 10 min from 0 min to 1 h. The total bacterial population was then stained with QUANTOM total cell staining dye, after which the stained cells were mixed with QUANTOM cell loading buffer and loaded into QUANTOM M50 Slides. The slides were centrifuged using the QUANTOM centrifuge to evenly distribute them throughout the counting chamber and ensure accurate cell counts. Intracellular fluorescence was detected using the QUANTOM Tx microbial cell counter, which captures and counts cells automatically (Logos Biosystems, Gyeonggi-do, South Korea).
# [5] = Peptide concentration 100 μM, 100% = 1% Triton X-100
Structure (SMILES),Minimal inhibitory concentration [1] [µM],Minimal inhibitory concentration [2] [µM],Erythrocyte destruction ability ([3]; Peptide concentration 3.13 μM) [%],Erythrocyte destruction ability ([3]; Peptide concentration 6.25 μM) [%],Erythrocyte destruction ability ([3]; Peptide concentration 12.5 μM) [%],Erythrocyte destruction ability ([3]; Peptide concentration 25 μM) [%],Erythrocyte destruction ability ([3]; Peptide concentration 50 μM) [%],"Erythrocyte destruction ability [3, 5]",also measured
"CC[C@H](C)[C@H](NC(=O)CN)C(=O)NCC(=O)N[C@@H](C)C(=O)N[C@H](C(=O)N[C@@H](CC(C)C)C(=O)N[C@@H](CCCCN)C(=O)N[C@H](C(=O)N[C@@H](CC(C)C)C(=O)N[C@H](C(=O)N[C@H](C(=O)NCC(=O)N[C@@H](CC(C)C)C(=O)N1CCC[C@H]1C(=O)N[C@@H](C)C(=O)N[C@@H](CC(C)C)C(=O)N[C@H](C(=O)N[C@@H](CO)C(=O)N[C@@H](Cc1c[nH]c2ccccc12)C(=O)N[C@H](C(=O)N[C@@H](CCCCN)C(=O)N[C@@H](CCCNC(=N)N)C(=O)N[C@@H](CCCCN)C(=O)N[C@@H](CCCNC(=N)N)C(=O)N[C@@H](CCC(N)=O)C(=O)N[C@@H](CCC(N)=O)C(N)=O)[C@@H](C)CC)[C@@H](C)CC)[C@@H](C)O)[C@@H](C)O)C(C)C)C(C)C [Melittin, reference compound]",4,4,27.33,49.41,69.75,83.99,97.76,99.17%,"Minimal inhibitory concentration (B. subtilis KCTC1998; B. subtilis KCTC1998, Gram-positive, 37° C., 18 hours): 4 µM; Minimal inhibitory concentration (Sa. typhimurium KCTC1926; Sa. typhimurium KCTC1926, Gram-negative, 37° C., 18 hours): 4 µM; bacterial membrane destruction (E. coli): found to have cell membrane destruction ability; bacterial cell membrane damage by SEM [4]: significant membrane damage; Biofilm minimal inhibitory concentration (P. aeruginosa ATCC15692; P. aeruginosa ATCC15692, 37° C., 24 hours): 4 µM; Biofilm minimal inhibitory concentration (P. aeruginosa 4007; P. aeruginosa 4007, 37° C., 24 hours): 4 µM"
CSCC[C@H](N)C(=O)N[C@@H](Cc1c[nH]c2ccccc12)C(=O)N[C@@H](CCCCN)C(=O)N[C@@H](Cc1c[nH]c2ccccc12)C(=O)N[C@@H](Cc1ccccc1)C(=O)N[C@@H](Cc1c[nH]cn1)C(=O)N[C@@H](CC(N)=O)C(=O)N[C@H](C(=O)N[C@@H](CC(C)C)C(=O)N[C@@H](CO)C(=O)N[C@@H](Cc1c[nH]c2ccccc12)C(=O)NCC(=O)N[C@@H](Cc1c[nH]c2ccccc12)C(=O)N[C@@H](CC(C)C)C(=O)N[C@@H](CC(C)C)C(=O)N[C@@H](C)C(=O)N[C@@H](CC(=O)O)C(=O)N[C@@H](CCCCN)C(=O)N[C@@H](CCCNC(=N)N)C(=O)N1CCC[C@H]1C(=O)N[C@@H](C)C(=O)N[C@@H](CCCNC(=N)N)C(=O)N[C@@H](CC(=O)O)C(=O)N[C@@H](Cc1ccc(O)cc1)C(=O)N[C@@H](CC(N)=O)C(=O)N[C@@H](CCCNC(=N)N)C(=O)N[C@@H](CCCCN)C(N)=O)C(C)C [PEP27-2] (H-MWKWFHNVLSWGWLLADKRPARDYNRK-NH2),4,4,0,2.30,14.96,40.51,62.47,75.8% and 75.84%,"Minimal inhibitory concentration (B. subtilis KCTC1998; KCTC1998, 18 h): 4 µM; Minimal inhibitory concentration (P. aeruginosa ATCC27853): 4 µM; Minimal inhibitory concentration (S. aureus ATCC25923): 2 µM; Minimal inhibitory concentration (S. aureus ATCC29213): 2 µM; Minimal inhibitory concentration (S. aureus MW2): 3 µM and 4 µM; Minimal inhibitory concentration (S. aureus USA300): 2 µM; Minimal inhibitory concentration (Sa. typhimurium KCTC1926; KCTC1926, 18 h): 8 µM; decrease in S. aureus cell viability (S. aureus ATCC 25923): 97.48%; Biofilm minimal inhibitory concentration (P. aeruginosa ATCC15692; ATCC15692, 24 h): 8 µM; Biofilm minimal inhibitory concentration (P. aeruginosa 4007; 4007, 24 h): 8 µM"
